The target in this test is T1, IRAK3-ePL (Homo sapiens, UniProt Q9Y616).
T1 construct: expressed in transfected cells; host or cells: 293T CRBN OE / GSPT1 G575N KI cells, lentiviral transduction, puromycin selection
As to the kind of experiment: IRAK3-ePL Overexpressing Degradation Assay. In kind it is cell-based. The settings on record: IRAK3-ePL Lenti-X 293T CRBN/GSPT1 G575N cells, overnight incubation; for Dmax: HEK-293T, top dose 10 μM, maximum percentage loss of target protein; for DC50: read-out: IRAK3 ePL degradation EC50. As to the method:
Stable cell lines were generated by the following protocol. 3×10^5 Lenti-X 293T cells (Clonetech) were plated in 0.8 mL of media in a 12-well plate and incubated overnight at 37° C./5% CO2. Packaging plasmid (0.4 μg, pMD), envelope plasmid (0.4 μg, pSP), and lentiviral transfer IRAK3-ePL plasmid (0.8 μg, IRAK3 sequence NM_007199.3) were mixed in 0.1 mL of Opti-MEM and incubated for 5 min. Simultaneously, 2.4 μL of Lipofectamine 2000 (Invitrogen) was added to 0.1 mL of Opti-MEM (Gibco) and incubated for 5 min. The plasmid DNA and lipofectamine were combined and the mixture was allowed to incubate for 20 min.DNA:Lipofectamine Opti-MEM mixtures were then added to previously plated cells dropwise and the cells were incubated for ˜16 h at 37° C./5% CO2. Following incubation, the media was removed and 1.2 mL of fresh media was added per well. Lenti-X 293T cells were incubated for ˜30 h at 37° C./5% CO2. 0.5×10^6 293T^CRBN OE/GSPT1 G575N KI cells were plated in 0.5 mL of media/well of a 12-well plate and incubated for ˜16 h at 37° C./5% CO2. Following incubation, media was removed from the Lenti-X 293T wells and passed through a […]. Part of the viral supernatant was used to transduce cells and the rest was stored at −80° C. Viruses were then added individually (0.5 mL virus) to each well of the 293T^CRBN OE/GSPT1 G575N KI cells, followed by addition of polybrene (10 mg/mL Millipore) to each well at a final concentration of 5.0 μg/mL. Cells were incubated for ˜24 h at 37° C./5% CO2. After aspirating media off plates, cells were washed with DPBS, trypsinized and plated in a 10 cm dish in 15 mL of media and 1 μg/mL puromycin. Following incubation of cells for ˜72 h at 37° C./5% CO2, media was aspirated off plates, and cells were washed with DPBS and trypsinized. The cells were plated in a 15 cm dish in 40 mL of media with 1.0 μg/mL Puromycin (Gibco) and incubated for ˜72 h at 37° C./5% CO2. Following incubation, media was removed and cells were washed with DPBS and trypsinized. The majority of cells were resuspended in Invitrogen freezing media and stored away (˜6-8×10^6 cells/vial).
IRAK3-ePL cellular dose response curve degradation assays were performed by the following protocol. Compounds to be tested were dispensed into a white 384-well tissue-culture treated plate using an acoustic liquid handler. Dilutions were prepared based on a 25 μL assay volume in duplicate 10 point 3-fold serial dilutions starting with a 10 μM dose. Negative control wells were included, which only contain 0.2% DMSO to calculate 100% signal. Positive control wells containing 30 μM Ataluren (luciferase inhibitor) were included to calculate the background signal level. All wells were backfilled to a final DMSO concentration of 0.2% to ensure DMSO uniformity across wells. IRAK3-ePL expressing cells (IRAK3-ePL Lenti-X 293T^CRBN/GSPT1 G575N) were washed, trypsinized, counted, and resuspended in fresh DMEM (Gibco) to give a cell concentration of 200,000 cells/mL. 25 μL of cells (5,000 cells/well) were dispensed into the wells of the 384-well plate prespotted with compounds in the previous step and incubated overnight at 37° C./5% CO2. Following incubation, the 384-well plate was taken out of the incubator and left at room temperature for 30 min. InCELL hunter reagent was prepared according to manufacturer's instructions (EA reagent, lysis buffer, and substrate reagent in a 1:1:4 ratio, Cat #96-0002, DiscoverX), which was added to the 384-well plate 25 μL per well. Following the incubation of the plate for 1 h at room temperature, the luminescence signal was read using a ViewLux plate reader. Data was processed and analyzed in ActivityBase software. In short, the average luminescence values of the positive control wells were subtracted from the rest of the wells for background correction, and all luminescence values were normalized to the DMSO control wells. The average value of the DMSO control wells was set to equal 100% of the relative IRAK3-ePL protein levels. […]

Consider 12 compounds from US20260028343A1, “Substituted Imidazopyrazine Compounds as Ligand Directed Degraders of IRAK3” (Celgene Corporation, priority 2022, published 2026).

A word on the Dmax: it is the largest share of the target that was removed.

The compound `Cc1cccc(-c2cnc(Nc3ccc(N4CCN(C(=O)COc5cccc6c5C(=O)N(C5CCC(=O)NC5=O)C6=O)CC4)cc3)c3nccn23)c1` (stereo not drawn) [Compound 1, 2-(2,6-Dioxopiperidin-3-yl)-4-(2-oxo-2-(4-(4-((5-(m-tolyl)imidazo[1,2-a]pyrazin-8-yl)amino)phenyl)piperazin-1-yl)ethoxy)isoindoline-1,3-dione] had a Dmax of 11%.
Same read-out and setting: the figure for `Cc1cccc(-c2cnc(Nc3ccc(N4CCN(C(=O)CCCNC(=O)COc5cccc6c5C(=O)N(C5CCC(=O)NC5=O)C6=O)CC4)cc3)c3nccn23)c1` (stereo not drawn) [Compound 2, 2-((2-(2,6-Dioxopiperidin-3-yl)-1,3-dioxoisoindolin-4-yl)oxy)-N-(4-oxo-4-(4-(4-((5-(m-tolyl)imidazo[1,2-a]pyrazin-8-yl)amino)phenyl)piperazin-1-yl)butyl)acetamide] is 10%; for `Cc1cccc(-c2cnc(Nc3ccc(N4CCN(C(=O)CCOCCNC(=O)COc5cccc6c5C(=O)N(C5CCC(=O)NC5=O)C6=O)CC4)cc3)c3nccn23)c1` (stereo not drawn) [Compound 3, 2-((2-(2,6-Dioxopiperidin-3-yl)-1,3-dioxoisoindolin-4-yl)oxy)-N-(2-(3-oxo-3-(4-(4-((5-(m-tolyl)imidazo[1,2-a]pyrazin-8-yl)amino)phenyl)piperazin-1-yl)propoxy)ethyl)acetamide] it is 14%; for `Cc1cccc(-c2cnc(Nc3ccc(N4CCN(C(=O)COc5ccc6c(c5)C(=O)N(C5CCC(=O)NC5=O)C6=O)CC4)cc3)c3nccn23)c1` (stereo not drawn) [Compound 4, 2-(2,6-Dioxopiperidin-3-yl)-5-(2-oxo-2-(4-(4-((5-(m-tolyl)imidazo[1,2-a]pyrazin-8-yl)amino)phenyl)piperazin-1-yl)ethoxy)isoindoline-1,3-dione] it is 22%.
On the same count and under the same terms, for `Cc1cccc(-c2cnc(Nc3ccc(N4CCN(C(=O)CCCNC(=O)COc5ccc6c(c5)C(=O)N(C5CCC(=O)NC5=O)C6=O)CC4)cc3)c3nccn23)c1` (stereo not drawn) [Compound 5, 2-((2-(2,6-Dioxopiperidin-3-yl)-1,3-dioxoisoindolin-5-yl)oxy)-N-(4-oxo-4-(4-(4-((5-(m-tolyl)imidazo[1,2-a]pyrazin-8-yl)amino)phenyl)piperazin-1-yl)butyl)acetamide] the value was 21%.
`Cc1cccc(-c2cnc(Nc3ccc(N4CCN(C(=O)CCOCCNC(=O)COc5ccc6c(c5)C(=O)N(C5CCC(=O)NC5=O)C6=O)CC4)cc3)c3nccn23)c1` (stereo not drawn) [Compound 6, 2-((2-(2,6-Dioxopiperidin-3-yl)-1,3-dioxoisoindolin-5-yl)oxy)-N-(2-(3-oxo-3-(4-(4-((5-(m-tolyl)imidazo[1,2-a]pyrazin-8-yl)amino)phenyl)piperazin-1-yl)propoxy)ethyl)acetamide] had a Dmax of 39%.
For `Cc1cccc(-c2cnc(Nc3ccc(N4CCN(CCNC(=O)COc5ccc6c(c5)C(=O)N(C5CCC(=O)NC5=O)C6=O)CC4)cc3)c3nccn23)c1` (stereo not drawn) [Compound 7, 2-((2-(2,6-Dioxopiperidin-3-yl)-1,3-dioxoisoindolin-5-yl)oxy)-N-(2-(4-(4-((5-(m-tolyl)imidazo[1,2-a]pyrazin-8-yl)amino)phenyl)piperazin-1-yl)ethyl)acetamide], the Dmax turned out to be 51% and the DC50 is 1.1 µM.
Consider `Cc1cccc(-c2cnc(Nc3cnn(C4CCN(CCNC(=O)COc5ccc6c(c5)C(=O)N(C5CCC(=O)NC5=O)C6=O)CC4)c3)c3nccn23)c1` (stereo not drawn) [Compound 8, 2-((2-(2,6-Dioxopiperidin-3-yl)-1,3-dioxoisoindolin-5-yl)oxy)-N-(2-(4-(4-((5-(m-tolyl)imidazo[1,2-a]pyrazin-8-yl)amino)-1H-pyrazol-1-yl)piperidin-1-yl)ethyl)acetamide], for which the Dmax is 78% and the DC50 came out at 0.017 µM.
`Cc1cccc(-c2cnc(Nc3cccc(C4CCN(CCNC(=O)COc5ccc6c(c5)C(=O)N(C5CCC(=O)NC5=O)C6=O)CC4)c3)c3nccn23)c1` (stereo not drawn) [Compound 9, 2-((2-(2,6-Dioxopiperidin-3-yl)-1,3-dioxoisoindolin-5-yl)oxy)-N-(2-(4-(3-((5-(m-tolyl)imidazo[1,2-a]pyrazin-8-yl)amino)phenyl)piperidin-1-yl)ethyl)acetamide] displayed a Dmax of 18%.
On the same count and under the same terms, the figure for `Cc1cccc(-c2cnc(Nc3ccc(C4CCN(CCNC(=O)COc5ccc6c(c5)C(=O)N(C5CCC(=O)NC5=O)C6=O)CC4)cc3)c3nccn23)c1` (stereo not drawn) [Compound 10, 2-((2-(2,6-Dioxopiperidin-3-yl)-1,3-dioxoisoindolin-5-yl)oxy)-N-(2-(4-(4-((5-(m-tolyl)imidazo[1,2-a]pyrazin-8-yl)amino)phenyl)piperidin-1-yl)ethyl)acetamide] is 17%; for `Cc1cccc(-c2cnc(Nc3cccc(N4CCN(CCNC(=O)COc5ccc6c(c5)C(=O)N(C5CCC(=O)NC5=O)C6=O)CC4)c3)c3nccn23)c1` (stereo not drawn) [Compound 11, 2-((2-(2,6-Dioxopiperidin-3-yl)-1,3-dioxoisoindolin-5-yl)oxy)-N-(2-(4-(3-((5-(m-tolyl)imidazo[1,2-a]pyrazin-8-yl)amino)phenyl)piperazin-1-yl)ethyl)acetamide] it is 22%.
In the case of `Cc1cccc(-c2cnc(Nc3cnn(C4CCN(C5CCC6(CC5)CCN(C(=O)c5ccc7c(c5)CN(C5CCC(=O)NC5=O)C7=O)CC6)CC4)c3)c3nccn23)c1` (stereo not drawn) [Compound 12, 3-(1-Oxo-5-(9-(4-(4-((5-(m-tolyl)imidazo[1,2-a]pyrazin-8-yl)amino)-1H-pyrazol-1-yl)piperidin-1-yl)-3-azaspiro[5.5]undecane-3-carbonyl)isoindolin-2-yl)piperidine-2,6-dione], the Dmax is 76% and the DC50 came out at 0.028 µM.
